In one data set the test system is Macrostomum lignano. As for the experimental part: Cultures of Macrostomum lignano (37) were grown in artificial seawater (ASW) enriched with f/2-medium (40) and fed ad libitum with the diatom Nitzschia curvilineata (PAE culture collection; UGent on the World Wide Web at pae.ugent.be/collection.htm), as described in references 41 and 43.
One week before starting chemical exposure, a six-well plate filled with 4 ml f/2 medium (Novolab NV) was inoculated with diatoms to achieve an ad libitum food source during exposure. Starvation of the worms leads to a decrease in stem cell proliferation (as shown in Nimeth et al (29)), which would interfere with stem cell proliferation, the endpoint of the assay. Before the start of exposure, fifteen adult worms per condition were pipetted in each well, which was then emptied by pipetting without drying out the worms and refilled with f/2 medium (control), if required, F2+0.05% DMSO (vehicle control) and a concentration of the chemical.
The DMSO concentration in the vehicle control never exceeded 0.05%. This represented the maximum DMSO percentage in the chemical's highest test concentration.
To select the appropriate compound concentration, first, a broad concentration range-finding experiment (spacing factor 10; two weeks exposure) was carried out. Based on this pilot range finding, a fine-tuned range finding (spacing factor less than or equal to 2; for D-Mannitol factor 5) was chosen to conduct the assay. The maximum concentration tested depended on the test compound solubility and the requirement of a survival of twelve out of fifteen worms at the end of exposure.
For all chemicals investigated in this disclosure, the medium was refreshed weekly.
After a preliminary test (CP as reference) on different exposure times ranging from two days to six weeks, the worms were exposed for a period of two weeks, after which they were subjected to phosphorylated histone H3 immunostaining (PH3) to quantify mitosis.
To quantify mitotic cells in whole mount specimens, the mitotic marker anti-PH3 was used. The staining was performed by first relaxing the animals in a 1:1 mixture of MgCl2.6H2O (7.14%) and ASW (5 minutes), then in MgCl2.6H2O (7.14%) (undiluted, 5 minutes), followed by fixation in paraformaldehyde (PFA, 4% in PBS, 60 minutes). Animals were then rinsed with phosphate-buffered saline (PBS, 3×5 minutes) and blocked in bovine serum albumin, containing TRITON® (BSA-T, 0.1% TRITON® X-100, 60 minutes). Subsequently, animals were incubated in primary rabbit-anti-phos-H3 (1:300 in BSA-T, overnight, 4° C., Upstate Biotechnology), rinsed in PBS (3×5 minutes) and incubated in secondary TRITC-conjugated swine-anti-rabbit (1:150 in BSA-T, 1 hour, DAKO). Finally, animals were washed with PBS (3×5 minutes) and slides were mounted using Vectashield (Vector Laboratories). Slides were analyzed using a Leica 2500P microscope equipped with epifluorescence, a 40× objective and a DFC360FX CCD camera.
All somatic PH3-positive cells were counted manually using the Image J cell counter plugin (44) (FIG. 1). Gonadal PH3+ cells were not included in the analysis because of 1) the high density of divisions in that region that can lead to overlapping signals and 2) the germ line representing a separate population of cells, differentially tolerant to exposure, which can result in quantification variability.
The cut-off value of the assay was determined based on density plots (R version 2.15.3; (33)) of the number of mitotic stem cells of all experiments for controls (sea water and DMSO), non-carcinogens, genotoxic carcinogens and non-genotoxic carcinogens. The cut-off value of 30 lays in the tail of the distribution corresponding to the 97.5 percentile or two standard deviations.
Concentrations resulting in the death of 20% of the worms (three out of fifteen) during exposure were considered cytotoxic and were not analyzed.

Data set [1] in a line: Solubility of test compound in the exposure medium. It is filed as physicochemical. Particulars: concentrations higher than 5 mM.
Data set [2] deals with Schmidtea mediterranea. As to conditions: in vivo. As for the experimental part:
Asexual strains of the freshwater planarian Schmidtea mediterranea (38, 45) were maintained in culture medium, consisting of water, that was first deionized and then distilled, and to which the following nutrients were added: 1.6 mM NaCl, 1.0 mM CaCl2, 1.0 mM MgSO4, 0.1 mM MgCl2, 0.1 mM KCl and 1.2 mM NaHCO3. The animals were continuously kept in the dark at a room temperature of 20° C. and were fed once a week with veal liver. […]
In each experimental condition, animals were cut transversally immediately before exposure to a genotoxic, non-genotoxic or non-carcinogen concentration, medium (control) or medium with DMSO (vehicle control). […] Stem cell proliferation was measured after one day of regeneration (the mitotic minimum of regeneration), after three days (the mitotic maximum of regeneration), after one week (the end stage of regeneration) after two and six weeks (during homeostasis), as well as at the appearance of organismal phenotypes (15, 46, 47). Phenotypic effects were monitored daily with a stereo microscope.

For data set [3], the system named is Schmidtea mediterranea. Particulars: in vivo. How it is done:
Asexual strains of the freshwater planarian Schmidtea mediterranea (38, 45) were maintained in culture medium, consisting of water, that was first deionized and then distilled, and to which the following nutrients were added: 1.6 mM NaCl, 1.0 mM CaCl2, 1.0 mM MgSO4, 0.1 mM MgCl2, 0.1 mM KCl and 1.2 mM NaHCO3. The animals were continuously kept in the dark at a room temperature of 20° C. and were fed once a week with veal liver.
Experiments were performed with regenerating animals (heads and tails) to accelerate initial responses to carcinogenic compounds, as this process of massive cell proliferation, migration and differentiation resembles the process of carcinogenesis, and, possibly differently affects the dynamics of stem cells toward genotoxic and non-genotoxic carcinogen exposures (16, 32, 39).
In each experimental condition, animals were cut transversally immediately before exposure to a genotoxic, non-genotoxic or non-carcinogen concentration, medium (control) or medium with DMSO (vehicle control). Exposures were performed in six-well plates (4 ml/well). To exclude intrinsic effects of DMSO on cell proliferation, the DMSO vehicle concentration never exceeded 0.05% and interaction effects between the test compound and DMSO were investigated using a two-way ANOVA (32). […] Animals were fed once a week with veal liver and starved for one week before stem cell proliferation measurements. Stem cell proliferation was measured after one day of regeneration (the mitotic minimum of regeneration), after three days (the mitotic maximum of regeneration), after one week (the end stage of regeneration) after two and six weeks (during homeostasis), as well as at the appearance of organismal phenotypes (15, 46, 47). Phenotypic effects were monitored daily with a stereo microscope.
An in vivo study allows the investigation of the entire organism's response to carcinogenic compounds and, as such, makes it possible to link carcinogen-induced stem cell proliferation with the organism's phenotype. Conditions were subdivided according to their phenotypic effects into concentrations that caused no observable phenotypic effects (category 1), phenotypic effects (category 2, described in phenotypic effect screening) and concentrations that induced organismal death (category 3). Phenotypic parameters that were monitored daily were tissue regression, lesion, blisters, bloating, pigmentation, behavior, regenerative success, body size, tissue outgrowth, flattened posture and organismal death (35). Stem cell proliferation was quantified at the appearance of systemic effects (category 2 concentrations).
The source holds these as a separate data set.

The source of these data is patent US10197556B2, “Methods to detect non-genotoxic carcinogens using flatworms” (Universiteit Gent, priority 2015, dated 2019).

Read-outs that look alike come from different tables or passages of the source.

On to `OC[C@@H](O)[C@@H](O)[C@H](O)[C@H](O)CO` [D-mannitol], for which the “proportion of worms having 30 or more mitotic stem cells” value in the data set on Macrostomum lignano (1000 μM, Experiment 1, two weeks exposure) is listed as 0%; in the data set with Macrostomum lignano (1000 μM, Experiment 2, two weeks exposure) it was 0%; in the data set on Macrostomum lignano (1000 μM, Experiment 3, two weeks exposure), 0%; in the data set with Macrostomum lignano (5000 μM, Experiment 1, two weeks exposure) it was 0%; with Macrostomum lignano (5000 μM, Experiment 2, two weeks exposure), 0%; in the data set with Macrostomum lignano (5000 μM, Experiment 3, two weeks exposure) it was 0%. In addition, the “concentration up to which predicted negative” value in the data set with Macrostomum lignano (all three experiments, two weeks exposure) is “up to 5 mM”. For the same compound, the “worms having a number of mitotic stem cells exceeding the cut-off value” with Macrostomum lignano (all three experiments, up to 5 mM, two weeks exposure) was 0%. Also, in the data set on Macrostomum lignano (two weeks exposure, outcome over the experiments), the “prediction by the assay in the experiments” value is “predicted negative by the assay for all three experiments”. Moreover, the “solubility in the medium” value in data set [1] is given as “insolubility in the medium”. The “effects on proliferative responses” value in the data set on Schmidtea mediterranea [2] was “no significant effects”. Moreover, the “phenotypic effects induced by exposure” value with Schmidtea mediterranea [3] is listed as “no phenotypic effects”.
